Experimental data from patent US8440830B2, “Tetrahydro-fused pyridines as histone deacetylase inhibitors” (4SC AG, priority 2007, dated 2013).
Like-named read-outs stand apart in the source and are kept apart here.

Experiments:
[1] = tested on: histone H3 hyperacetylation in HeLa cervical carcinoma cells; experiment: Cellular histone H3 hyperacetylation assay; assay type: cell-based; conditions: Homo sapiens, 24 h treatment
Procedure, shortened: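 HeLa cells treated with compound for 24 h, then fixed, permeabilized and immunostained for acetylated histone H3 (K1-20) with an Alexa Fluor 488 secondary. High-content imaging scored the percentage of cells with nuclear fluorescence; EC50 from concentration-effect curves by non-linear regression.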

[2] = tested on: fully transformed malignant cancer cell lines; experiment: Anti-proliferative activity, selection of cell lines (Alamar Blue); assay type: cell-based; conditions: Homo sapiens, 72 h, mean over cell lines, read-out: Mean IC50 values as calculated for fully malignant cancer cell lines
Method: The anti-proliferative activity of the histone deacetylase inhibitory compounds as described herein, is evaluated using the following cell lines: HeLa and HeLa-KB (cervical carcinoma), H460 (non small cell lung cancer), A549 (non-small cell lung cancer), MCF7 (breast carcinoma), MCF10A (normal, non tumorigenic breast epithelial), MDA-MB468 (breast carcinoma), MDA-MB435 (breast carcinoma), MDA-MB231 (breast carcinoma), SKBR-3 (breast carcinoma), SKOV-3 (ovarial carcinoma), A-2780 (ovarial carcinoma), RKO (colon carcinoma), HCT-15 (colon carcinoma), HCT-116 (colon carcinoma), PC3 (prostate carcinoma), BPH1 (benign prostate hyperplasia), AsPC1 (pancreatic carcinoma), Ca127 (tongue carcinoma), A-431 (vulva carcinoma), Hec1A (endometrial carcinoma), Saos-2 (osteosarcoma), U87MG (glioblastoma), WM266-4 (melanoma), K562 (chronic myeloid leukemia), EOL1 (acute hypereosinophilic myeloid leukemia), CCRF-CEM and CCRF-CEM VCR1000 (acute lymphoblastic leukemia sensitive and resistant towards Vincristine). For quantification of cellular proliferation/living cells the Alamar Blue (Resazurin) cell viability assay is applied (O'Brien et al. Eur J Biochem 267, 5421-5426, 2000). In this assay Resazurin is reduced to the fluorescent resorufine by cellular dehydrogenase activity, correlating with viable, proliferating cells. The examples are dissolved as 20 mM solutions in dimethylsulfoxide (DMSO) and subsequently diluted in semi-logarithmic steps. Cell lines are seeded at respective density into 96 well flat bottom plates in a volume of 200 μl per well. 24 h after seeding 1 μl each of the compound dilutions are added into each well of the 96 well plate. Each compound dilution is tested as quadruplicates. Wells containing untreated control cells are filled with 200 μl DMEM medium containing 0.5% v:v DMSO. The cells are then incubated with the compounds for 72 h at 37° C. in a humidified atmosphere containing 5% carbon dioxide. To determine the viability of the cells, 20 μl of a Resazurin solution (Sigma; 90 mg/l) are added. After 4 h incubation at 37° C. the fluorescence is measured at an extinction of λ=544 nm and an emission of λ=590 nm. For the calculation of the cell viability the emission value from untreated cells is set as 100% viability and the emission rates of treated cells are set in relation to the values of untreated cells. Viabilities are expressed as % values. The corresponding IC50 values of the compounds for cytotoxic activity are determined from the concentration-effect curves by means of non-linear regression.
The anti-proliferative activity of compounds from examples 1, 2, 3, 12 and 150 is evaluated by using a broad selection of non-malignant cell lines and fully transformed malignant cancer cell lines.

[3] = read-out: EC50, induction of histone H3 hyperacetylation
[4] = read-out: −lg EC50, induction of histone H3 hyperacetylation

| Compound | EC50 [1, 3] | EC50 [1, 4] | IC50 [2] |
| --- | --- | --- | --- |
| Nc1ccccc1NC(=O)c1nc2c(s1)CN(C(=O)Nc1ccc(-c3ccccc3)cc1)CC2 [Example 1, N^2-(2-aminophenyl)-N5-biphenyl-4-yl-6,7-dihydro[1,3]thiazolo[5,4-c]pyridine-2,5(4H)-dicarboxamide] | 0.15 to 15 µM | 0.251 to 15.8 µM | 2.4 to 5.4 µM |
| CN(C)c1ccc(NC(=O)N2CCc3nc(C(=O)Nc4ccccc4N)sc3C2)cc1 [Example 2, N^2-(2-aminophenyl)-N5-[4-(dimethylamino)phenyl]-6,7-dihydro[1,3]thiazolo[5,4-c]pyridine-2,5(4H)-dicarboxamide] | 0.15 to 15 µM | 0.251 to 15.8 µM | 2.4 to 5.4 µM |
| COc1ccc(NC(=O)N2CCc3nc(C(=O)Nc4ccccc4N)sc3C2)cc1 [Example 3, N^2-(2-aminophenyl)-N5-(4-methoxyphenyl)-6,7-dihydro[1,3]thiazolo[5,4-c]pyridine-2,5(4H)-dicarboxamide] | 0.15 to 15 µM | 0.251 to 15.8 µM | 2.4 to 5.4 µM |
| Nc1ccccc1NC(=O)c1nc2c(s1)CN(C(=O)Nc1cnc3ccccc3c1)CC2 [Example 12, N^2-(2-aminophenyl)-N5-quinolin-3-yl-6,7-dihydro[1,3]thiazolo[5,4-c]pyridine-2,5(4H)-dicarboxamide] | 0.15 to 15 µM | 0.251 to 15.8 µM | 2.4 to 5.4 µM |
